Source: ChEMBL document CHEMBL1201862, “PubChem BioAssay data set” (2004)
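Test compounds were applied to cells in 96-well plates for 48 hours at 5 doses. At the GI50, growth is halved.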 Activity calls are given as the source filed them. Rule as the data show it: active = GI50 up to about 1.1 µM and inactive = higher.

Legend:
Test in all cases: inhibition of tumour cell growth, NCI panel, 48 h
A498 = test system: A498
ACHN = test system: ACHN
CAKI-1 = test system: CAKI-1
HCC 2998 = test system: HCC 2998
LOX IMVI = test system: LOX IMVI
Malme-3M = test system: Malme-3M
NCI-H226 = test system: NCI-H226
NCI-H23 = test system: NCI-H23
NCI-H460 = test system: NCI-H460
OVCAR-3 = test system: OVCAR-3
SF-268 = test system: SF-268
SK-MEL-5 = test system: SK-MEL-5
SN12C = test system: SN12C
SW-620 = test system: SW-620
UACC-62 = test system: UACC-62
SR = test system: SR

Measured: GI50

COc1ccc([Se]c2ccc(OC)cc2)cc1
inactive: A498 99.1 µM | ACHN > 100 µM | CAKI-1 23.3 µM | HCC 2998 > 100 µM | LOX IMVI > 100 µM | Malme-3M > 100 µM | NCI-H226 17.4 µM | NCI-H23 56.2 µM | NCI-H460 > 100 µM | OVCAR-3 76.6 µM | SF-268 56.9 µM | SK-MEL-5 48.2 µM | SN12C > 100 µM | SW-620 > 100 µM | UACC-62 > 100 µM

O=C(O)c1ccccc1NC(=O)C1CCCCC1
inactive: A498 31.8 µM | ACHN > 100 µM | HCC 2998 > 100 µM | LOX IMVI > 100 µM | Malme-3M > 100 µM | NCI-H226 > 100 µM | NCI-H460 66.1 µM | OVCAR-3 > 100 µM | SF-268 > 100 µM | SK-MEL-5 > 100 µM | SN12C > 100 µM | SW-620 > 100 µM | UACC-62 > 100 µM

COC(=O)/C(=N\NC(=O)C[N+](C)(C)C)C(C(=O)OC)C(=O)C(=O)Nc1ccccc1C(N)=O (configuration not stated)
inactive: A498 > 100 µM | ACHN > 100 µM | CAKI-1 > 100 µM | HCC 2998 > 100 µM | LOX IMVI > 100 µM | Malme-3M > 100 µM | NCI-H226 > 100 µM | NCI-H23 > 100 µM | NCI-H460 > 100 µM | OVCAR-3 > 100 µM | SF-268 > 100 µM | SK-MEL-5 > 100 µM | SN12C > 100 µM | SR > 100 µM | SW-620 > 100 µM | UACC-62 > 100 µM

Cn1ccnc1CCc1ccc(Cl)c(Cl)c1
inactive: A498 73.5 µM | ACHN > 100 µM | CAKI-1 > 100 µM | LOX IMVI > 100 µM | Malme-3M > 100 µM | NCI-H226 > 100 µM | NCI-H23 > 100 µM | NCI-H460 > 100 µM | OVCAR-3 74.1 µM | SF-268 > 100 µM | SK-MEL-5 37.5 µM | SN12C > 100 µM | SR > 100 µM | SW-620 > 100 µM | UACC-62 > 100 µM

C1=C2/CC[C@H](Sc3ccccc3)C2C2(CCCCC/1)OCCO2 (some centres not stated)
inactive: ACHN 26.7 µM | HCC 2998 23.5 µM | LOX IMVI 15.2 µM | Malme-3M 22.1 µM | NCI-H226 23.6 µM | NCI-H23 16.2 µM | NCI-H460 21.5 µM | OVCAR-3 18.7 µM | SF-268 39.2 µM | SN12C 32.3 µM | SR 10.7 µM | SW-620 28.1 µM | UACC-62 16.5 µM

N#CCCN(CCC#N)c1ccc(C(=O)NN)cc1
inactive: A498 > 100 µM | ACHN > 100 µM | CAKI-1 > 100 µM | HCC 2998 > 100 µM | LOX IMVI > 100 µM | Malme-3M > 100 µM | NCI-H226 > 100 µM | NCI-H23 > 100 µM | NCI-H460 > 100 µM | OVCAR-3 > 100 µM | SF-268 > 100 µM | SK-MEL-5 > 100 µM | SN12C > 100 µM | SW-620 > 100 µM | UACC-62 > 100 µM

CN[C@@H](C)[C@H](NC)c1ccccc1
inactive: CAKI-1 > 100 µM | HCC 2998 > 100 µM | LOX IMVI > 100 µM | Malme-3M > 100 µM | NCI-H226 > 100 µM | NCI-H23 > 100 µM | OVCAR-3 > 100 µM | SK-MEL-5 > 100 µM | SN12C > 100 µM | SW-620 > 100 µM | UACC-62 > 100 µM

COC(=O)C(C(=O)C(=O)Nc1c(C)cccc1C)c1cnc2ccccc2n1 (configuration not stated)
inactive: A498 > 100 µM | ACHN > 100 µM | CAKI-1 > 100 µM | HCC 2998 > 100 µM | LOX IMVI > 100 µM | Malme-3M > 100 µM | NCI-H226 > 100 µM | NCI-H23 > 100 µM | NCI-H460 > 100 µM | SF-268 > 100 µM | SK-MEL-5 > 100 µM | SN12C > 100 µM | SR > 100 µM | SW-620 > 100 µM | UACC-62 > 100 µM

CCCCCCCCCCCC(=O)OC(COC(N)=O)COc1ccc(Cl)cc1 (configuration not stated)
inactive: A498 65.9 µM | ACHN > 100 µM | CAKI-1 21.3 µM | HCC 2998 30.5 µM | LOX IMVI 23.2 µM | Malme-3M 21.9 µM | NCI-H226 17.3 µM | NCI-H23 20.7 µM | NCI-H460 23.7 µM | OVCAR-3 16.3 µM | SF-268 20.6 µM | SK-MEL-5 17.6 µM | SN12C 26.7 µM | SW-620 24.3 µM | UACC-62 19.5 µM

CCc1cccc(C)c1NC(=O)CC(=O)NNC(N)=S
inactive: ACHN > 100 µM | CAKI-1 > 100 µM | HCC 2998 > 100 µM | LOX IMVI > 100 µM | Malme-3M > 100 µM | NCI-H226 > 100 µM | NCI-H23 > 100 µM | NCI-H460 > 100 µM | OVCAR-3 > 100 µM | SF-268 > 100 µM | SK-MEL-5 > 100 µM | SN12C > 100 µM | SW-620 > 100 µM

CN(C)c1ccc2c(=O)c3ccccc3oc2n1
inactive: ACHN 42 µM | CAKI-1 > 100 µM | HCC 2998 > 100 µM | LOX IMVI > 100 µM | Malme-3M > 100 µM | NCI-H23 > 100 µM | NCI-H460 > 100 µM | OVCAR-3 91.6 µM | SF-268 > 100 µM | SK-MEL-5 38.6 µM | SN12C > 100 µM | SW-620 > 100 µM | UACC-62 > 100 µM

CCCCCCCCCCCC(=O)OCC1OC(n2cc(F)c(=O)[nH]c2=O)C(NC(=O)OCc2ccccc2)C(OC(=O)CCCCCCCCCCC)C1O (configuration not stated)
inactive: A498 > 100 µM | ACHN > 100 µM | CAKI-1 > 100 µM | HCC 2998 > 100 µM | LOX IMVI > 100 µM | Malme-3M > 100 µM | NCI-H226 > 100 µM | NCI-H23 > 100 µM | NCI-H460 > 100 µM | OVCAR-3 > 100 µM | SF-268 > 100 µM | SK-MEL-5 > 100 µM | SN12C > 100 µM | SR > 100 µM | SW-620 > 100 µM | UACC-62 > 100 µM

COc1ccc(NC(=O)C(=O)Cc2nc3ccc([N+](=O)[O-])cc3nc2O)c(OC)c1
inactive: A498 44.6 µM | ACHN > 100 µM | CAKI-1 > 100 µM | HCC 2998 > 100 µM | LOX IMVI 87.9 µM | Malme-3M > 100 µM | NCI-H226 > 100 µM | NCI-H23 > 100 µM | NCI-H460 > 100 µM | OVCAR-3 > 100 µM | SK-MEL-5 > 100 µM | SW-620 > 100 µM | UACC-62 > 100 µM

CN(C)c1ccc(/C=C2\CNC/C(=C\c3ccc(N(C)C)cc3)C2=O)cc1
inactive: A498 17.6 µM | ACHN 24.4 µM | HCC 2998 29.3 µM | LOX IMVI 18.8 µM | Malme-3M > 100 µM | NCI-H226 32.7 µM | NCI-H23 > 100 µM | NCI-H460 15.5 µM | OVCAR-3 38.8 µM | SF-268 > 10 µM | SK-MEL-5 65.5 µM | SN12C 26.5 µM | SR 8.81 µM | UACC-62 34.5 µM
